Data from patent EP4813989A1, “CRYSTAL, PHARMACEUTICAL COMPOSITION, PREPARATION METHOD THEREFOR, AND USE THEREOF” (TYK Medicines, Inc., priority 2023, dated 2025).

Experiments:
Assay type in all cases: physicochemical
[1] = High-humidity test, related substances by HPLC; settings: 90%RH±5%RH; for Impurity content RRT0.55 / Impurity content RRT0.66 / Impurity content RRT0.71 / Impurity content RRT0.94 / Impurity content RRT1.02 / Impurity content RRT1.06 / Impurity content RRT1.08 / Impurity content RRT1.15 / Total impurities: open
Source text: An investigation method for the high-humidity test can be seen in Table 12 below.
Results of related substances in each crystal form under the high-humidity condition (90%RH±5%RH) can be seen in Table 16.
HPLC detection results of related substances under the high-humidity condition can be seen as follows: Table 16

[2] = Flowability test (angle of repose); settings: listed as amorphous sample
Experimental: A flowability determination method was as follows: an angle of repose was determined by using a device composed of 2 to 3 funnels connected in series in a staggered manner, and drug powder was slowly and uniformly passed through the funnels onto a stationary base with a diameter d, so as to form a symmetric powder pile with a single layer of powder at the bottom. During the formation of the powder pile, a height of the funnels was maintained within 2-4 cm from a top of the powder pile, a height h of the cone was determined, and the angle of repose was calculated as tanθ=h/(d/2).

[3] = Light exposure test, related substances by HPLC; settings: for Impurity content RRT0.55 / Impurity content RRT0.66 / Impurity content RRT0.71 / Impurity content RRT0.94 / Impurity content RRT1.02 / Impurity content RRT1.06 / Impurity content RRT1.08 / Impurity content RRT1.15 / Total impurities: 4500lx±500lx, open
Source text: An investigation method for the light exposure test can be seen in Table 13 below.
Results of related substances in each crystal form under the light exposure condition (4500lx±500lx) can be seen in Table 17.
HPLC detection results of related substances under the light exposure condition can be seen as follows: Table 17

[4] = Accelerated test, related substances by HPLC; settings: 40°C±2°C, 75%RH±5%RH; for Impurity content RRT0.55 / Impurity content RRT0.66 / Impurity content RRT0.71 / Impurity content RRT0.94 / Impurity content RRT1.02 / Impurity content RRT1.06 / Impurity content RRT1.08 / Impurity content RRT1.15 / Total impurities: open
Experimental: An investigation method for the accelerated test can be seen in Table 14 below.
Change results of related substances in each crystal form under the accelerated condition (40°C±2°C, 75%RH±5%RH) can be seen in Table 18.
HPLC detection results of related substances under the accelerated condition can be seen as follows: Table 18

[5] = Dynamic vapor sorption (DVS) hygroscopicity
Experimental: Dynamic vapor sorption (DVS) was used to investigate hygroscopicities of an active pharmaceutical ingredient in different crystal forms.
Determination method: • instrument: dynamic vapor sorption analyzer; temperature: 25°C; protective gas and flow rate: N2, 200 mL/min; • dm/dt: 0.002%/min; RH range: 0%RH-100%RH; cycle: 1 full cycle.

C[C@@H](Nc1ccn2ncc(C3=NOC(C)(C)N3)c2n1)c1cc(F)cc(F)c1F [amorphous form]
approximately 1.5%: DVS weight loss ([5]; humidity reduced from 100% to 90%)
0.16%: Impurity content RRT0.71 ([1]; 0 day) | Impurity content RRT0.71 ([1]; 11 days) | Impurity content RRT0.71 ([3]; 0 day) | Impurity content RRT0.71 ([4]; 0 day)
1.11%: Total impurities ([1]; 11 days) | Total impurities ([1]; 32 days)
0.10%: Increase of total impurities ([1]; 32 days)
0.23%: Impurity content RRT1.08 ([1]; 32 days) | Impurity content RRT0.66 ([3]; 32 days)
0.20%: Impurity content RRT0.66 ([1]; 0 day) | Impurity content RRT0.66 ([1]; 11 days) | Impurity content RRT0.66 ([1]; 32 days) | Impurity content RRT0.66 ([3]; 0 day) | Impurity content RRT0.66 ([3]; 5 days) | Impurity content RRT0.66 ([4]; 0 day) | Impurity content RRT0.66 ([4]; 5 days) | Impurity content RRT0.66 ([4]; 11 days) | Impurity content RRT0.66 ([4]; 32 days)
0.17%: Impurity content RRT0.71 ([1]; 5 days) | Impurity content RRT0.71 ([3]; 5 days) | Impurity content RRT0.71 ([3]; 11 days) | Impurity content RRT0.71 ([4]; 5 days) | Impurity content RRT0.71 ([4]; 11 days)
0.06%: Impurity content RRT1.06 ([1]; 32 days) | Increase of impurity RRT1.02 content ([3]; 4500 lx±500 lx, 32 days) | Impurity content RRT0.94 ([3]; 32 days) | Impurity content RRT1.06 ([4]; 32 days)
0.18%: Impurity content RRT1.08 ([1]; 0 day) | Impurity content RRT0.71 ([1]; 32 days) | Impurity content RRT1.08 ([3]; 0 day) | Impurity content RRT1.08 ([4]; 0 day) | Impurity content RRT0.71 ([4]; 32 days)
0.33%: Impurity content RRT1.02 ([3]; 11 days)
1.07%: Total impurities ([1]; 5 days)
0.32%: Impurity content RRT1.02 ([3]; 5 days) | Impurity content RRT1.02 ([4]; 5 days)
0.29%: Impurity content RRT1.02 ([1]; 0 day) | Impurity content RRT1.02 ([3]; 0 day) | Impurity content RRT1.02 ([4]; 0 day) | Impurity content RRT1.02 ([4]; 32 days)
0.21%: Impurity content RRT0.66 ([1]; 5 days) | Impurity content RRT1.08 ([3]; 5 days) | Impurity content RRT0.66 ([3]; 11 days) | Impurity content RRT0.71 ([3]; 32 days) | Impurity content RRT1.08 ([4]; 32 days)
1.01%: Total impurities ([1]; 0 day) | Total impurities ([3]; 0 day) | Total impurities ([4]; 0 day)
0.31%: Impurity content RRT1.02 ([1]; 5 days) | Impurity content RRT1.02 ([1]; 11 days) | Impurity content RRT1.02 ([1]; 32 days) | Impurity content RRT1.02 ([4]; 11 days)
1.05%: Total impurities ([4]; 32 days)
0.28%: Impurity content RRT1.08 ([3]; 11 days)
0.09%: Impurity content RRT1.06 ([1]; 5 days) | Impurity content RRT1.06 ([1]; 11 days) | Impurity content RRT1.06 ([3]; 11 days)
0.35%: Impurity content RRT1.02 ([3]; 32 days)
0.08%: Impurity content RRT1.06 ([3]; 5 days) | Impurity content RRT1.06 ([4]; 5 days) | Impurity content RRT1.06 ([4]; 11 days)
0.19%: Impurity content RRT1.08 ([1]; 5 days) | Increase of impurity RRT1.08 content ([3]; 4500 lx±500 lx, 32 days)
1.38%: Total impurities ([3]; 32 days)
approximately 3.5%: DVS weight gain ([5]; humidity increased from 90% to 100%)
0.37%: Increase of total impurities ([3]; 4500 lx±500 lx, 32 days) | Impurity content RRT1.08 ([3]; 32 days)
0.22%: Impurity content RRT1.08 ([4]; 5 days)
had hygroscopicity: Hygroscopicity (conclusion) [5]
0.07%: Impurity content RRT1.06 ([1]; 0 day) | Impurity content RRT1.06 ([3]; 0 day) | Impurity content RRT1.06 ([3]; 32 days) | Impurity content RRT1.06 ([4]; 0 day)
0.25%: Impurity content RRT1.08 ([1]; 11 days)
1.09%: Total impurities ([3]; 5 days) | Total impurities ([4]; 5 days)
1.17%: Total impurities ([3]; 11 days)
0.05%: Increase of impurity RRT1.08 content ([1]; 32 days) | Impurity content RRT1.15 ([1]; 32 days) | Increase of impurity RRT0.71 content ([3]; 4500 lx±500 lx, 32 days) | Impurity content RRT0.55 ([3]; 32 days) | Impurity content RRT1.15 ([3]; 32 days)
1.10%: Total impurities ([4]; 11 days)
approximately 37.5 °: angle of repose [2]
0.04%: Impurity content RRT0.94 ([1]; 0 day) | Impurity content RRT1.15 ([1]; 0 day) | Impurity content RRT1.15 ([1]; 5 days) | Impurity content RRT0.94 ([1]; 32 days) | Impurity content RRT0.94 ([3]; 0 day) | Impurity content RRT1.15 ([3]; 0 day) | Impurity content RRT0.55 ([3]; 5 days) | Impurity content RRT1.15 ([3]; 5 days) | Impurity content RRT0.94 ([4]; 0 day) | Impurity content RRT1.15 ([4]; 0 day) | Impurity content RRT0.55 ([4]; 5 days) | Impurity content RRT1.15 ([4]; 5 days) | Impurity content RRT0.55 ([4]; 32 days) | Impurity content RRT0.94 ([4]; 32 days)
0.03%: Increase of impurity RRT1.02 content ([1]; 32 days) | Impurity content RRT0.55 ([1]; 0 day) | Impurity content RRT0.55 ([1]; 5 days) | Impurity content RRT0.94 ([1]; 5 days) | Impurity content RRT0.55 ([1]; 11 days) | Impurity content RRT0.94 ([1]; 11 days) | Impurity content RRT1.15 ([1]; 11 days) | Impurity content RRT0.55 ([1]; 32 days) | Increase of impurity RRT0.66 content ([3]; 4500 lx±500 lx, 32 days) | Impurity content RRT0.55 ([3]; 0 day) | Impurity content RRT0.94 ([3]; 5 days) | Impurity content RRT0.55 ([3]; 11 days) | Impurity content RRT0.94 ([3]; 11 days) | Impurity content RRT1.15 ([3]; 11 days) | Increase of impurity RRT1.08 content ([4]; 32 days) | Impurity content RRT0.55 ([4]; 0 day) | Impurity content RRT0.94 ([4]; 5 days) | Impurity content RRT0.55 ([4]; 11 days) | Impurity content RRT0.94 ([4]; 11 days) | Impurity content RRT1.15 ([4]; 11 days) | Impurity content RRT1.15 ([4]; 32 days)
0.24%: Impurity content RRT1.08 ([4]; 11 days)
